Series [1] concerns ATPase, Na+/K+, Heart, Pig. Nature of the series: Secondary toxicity screen (MDS Pharma Services), enzyme assay. It is filed as biochemical. As to conditions: 10 μM. Here is the method: (§1) A secondary pharmacological screening of molecules of interest at a fixed concentration is often practiced in the pharmaceutical industry in order to evaluate the effect of the compound on secondary targets that could result in untoward toxicity in-vivo. These secondary screens are well known in the art and can be carried out by labs which specialize in these tests such as MDS-Panlabs and CEREP. A secondary toxicity screen is performed with Quercetin-3′-O-phosphate at a concentration of 10 μM against 122 targets in enzyme, radioligand binding, and cellular assays by MDS Pharma Services by methods well known in the art. Inhibition is found in only the following targets (percent inhibition at 10 μM in parentheses): ATPase, Na+/K+, Heart, Pig (65%), Nitric Oxide Synthase, Endothelial (eNOS) (72%), Protein Tyrosine Kinase, FGFR2 (94%), Protein Tyrosine Kinase, FGFR1(96%), Protein Tyrosine Kinase, Insulin Receptor (91%), Protein Tyrosine Kinase, (82%), Protein Tyrosine Kinase, ZA70 (ZAP-70) (74%), UDP Glucuronosyltransferase, UGT1A1 (52%), Adenosine A1 (50%), Adrenergic α2A (57%), Dopamine D47 (51%), Peripheral Benzodiazepine Receptor (PBR) (53%), Transporter, Monoamine rabbit (68%), Serotonin (5-Hydroxytryptamine) 5-HT1A (62%).

For series [2], the system named is Transporter, Monoamine rabbit. Nature of the series: Secondary toxicity screen (MDS Pharma Services), radioligand binding. The settings on record: 10 μM. Here is the method:
as §1

Series [3] concerns Dopamine D47. The description is as above. As to conditions: 10 μM. Here is the method:
as §1

The subject of series [4] is Peripheral Benzodiazepine Receptor (PBR). Described as above. The settings on record: 10 μM. Here is the method: as §1
The subject of series [5] is kidney of rats. Kind of series: Renal pathology in rats co-administered with quercetin-3′-O-phosphate and tacrolimus. It is filed as in vivo, rat. As to the method: Tissue is removed from the kidney of rats treated with tacrolimus (Prograf®) at 0.5 mg/kg and inert vehicle, and from rats treated with tacrolimus (Prograf®) at 0.5 mg/kg and quercetin-3′-O-phosphate (Q-Phosphate) at 11 mg/kg, 28 mg/kg, and at 114 mg/kg for 25 days. […] The tissue from rats treated with Q-Phosphate and tacrolimus show no vacuoles.

Series [6] has as its target T1, AdrenergicA2A (Homo sapiens, UniProt P08913).
T1 sequence (P08913 1-465): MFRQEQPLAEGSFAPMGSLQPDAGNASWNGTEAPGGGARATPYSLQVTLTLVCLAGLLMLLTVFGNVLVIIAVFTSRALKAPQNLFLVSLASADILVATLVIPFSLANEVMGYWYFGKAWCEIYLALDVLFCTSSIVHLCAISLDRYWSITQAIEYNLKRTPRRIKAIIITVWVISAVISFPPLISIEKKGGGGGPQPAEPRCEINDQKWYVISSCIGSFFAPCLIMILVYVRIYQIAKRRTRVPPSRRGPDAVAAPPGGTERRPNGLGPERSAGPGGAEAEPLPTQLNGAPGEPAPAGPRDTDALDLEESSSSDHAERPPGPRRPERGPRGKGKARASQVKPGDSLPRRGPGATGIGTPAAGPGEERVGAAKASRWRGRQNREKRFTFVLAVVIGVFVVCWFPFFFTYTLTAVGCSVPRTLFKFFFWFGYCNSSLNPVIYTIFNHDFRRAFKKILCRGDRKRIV
Nature of the series: GTPγS functional assay. It is filed as biochemical. The settings on record: 10 μM; potentially inverse agonist. Here is the method: (§2) The compound is additionally tested in AdenosineA1, AdrenergicA2A, DopamineD25, Histamine H1-, and μ-Opiate GTPγS functional assays using a concentration of 10 μM.

In series [7] the target is T2, AdenosineA1 (Homo sapiens, UniProt P30542).
T2 sequence (P30542 1-326): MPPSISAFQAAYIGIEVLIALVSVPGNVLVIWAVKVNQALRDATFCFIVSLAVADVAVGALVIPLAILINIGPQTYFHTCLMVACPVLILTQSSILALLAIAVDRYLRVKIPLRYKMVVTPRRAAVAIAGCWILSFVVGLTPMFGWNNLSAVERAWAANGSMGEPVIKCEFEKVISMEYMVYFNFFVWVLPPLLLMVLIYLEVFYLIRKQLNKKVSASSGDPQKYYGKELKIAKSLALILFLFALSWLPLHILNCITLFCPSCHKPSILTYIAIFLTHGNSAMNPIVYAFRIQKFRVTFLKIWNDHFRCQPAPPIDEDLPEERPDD
Kind of series: GTPγS functional assay. It is filed as biochemical. The settings on record: 10 μM. Here is the method: as §2

Series [8] can be described thus: Solubility of quercetin-3′-O-phosphate in water. Format: physicochemical. As to conditions: about pH 8 (about 4 g in 50 mL). As to the method: The resultant solid from concentration of the decantate is added acetonitrile (500 mL) followed by water (50 mL) then 1N hydrochloric acid (approx. 20 mL) until a pH of about 5 is achieved. The solution is concentrated to a volume of about 120 mL. The residue is purified with a 600 g, C-18 reverse phase column with 60 mL injections in a gradient. The gradient is 100% water (1 L), 9:1 water:MeOH (1 L), 8:2 water:MeOH (1 L), 7:3 water:MeOH (1 L), 1:1 water:MeOH. The desired product begins to elute after about 500 mL of 1:1 water:MeOH. The fractions are combined and concentrated. The residue is dissolved in water (40 mL) and solid potassium carbonate (approx. 3 g) is added until pH=8. The pH is adjusted to about 2 with 50% sulfuric acid resulting in the formation of a precipitate. The solid is collected, which contained approximately 10% TEA. The solid is suspended in water (50 mL), and the pH is adjusted to about 8 with solid potassium carbonate to produce a yellow solution. The resultant yellow solution is treated dropwise with 50% sulfuric acid until a pH of about 2 is reached, resulting in the precipitation of a solid. The solid is collected and slurried in water (75 mL). The solid is collected and dried giving 4 g, representing 12% of quercetin-3′-O-phosphate. […]

A short description of series [9]: Stability of Quercetin-3′-O-phosphate in water. Format: physicochemical. As to conditions: water at pH 8, 24 hours, ambient temperature. Here is the method:
Quercetin-3′-O-phosphate is dissolved in water at about pH 8.

Consider one compound from US7947733B2, “Phosphorylated pyrone analogs and methods” (Limerick BioPharma, priority 2007, dated 2011).

By solubility is commonly meant how much of the substance goes into solution per volume. A higher solubility goes with much dissolved substance. Consider `O=c1c(O)c(-c2ccc(O)c(OP(=O)(O)O)c2)oc2cc(O)cc(O)c12` [Quercetin-3′-O-phosphate], for which the percent inhibition worked out at 65% in series [1], 68% in series [2], 51% in series [3] and 53% in series [4]. Moreover, the “protective effect with respect to the kidneys” value in series [5] (co-administered with tacrolimus) was “significant protective effect”. Also, the “vacuolation of kidney tissue” value in [5] (tacrolimus 0.5 mg/kg and Q-Phosphate at 11, 28 and 114 mg/kg, 25 days) is “no vacuoles”. In series [6], the “inhibition in GTPγS functional assay” value is listed as “marked negative inhibition”. The compound further returned an antagonist activity in [7] of 48%. Also, in [8], the solubility was not below 80 mg/mL. Further, the “degradation seen by NMR” value in [9] is “no degradation”.
